According to US9643928B2, “Crystalline forms of {[1-cyano-5-(4-chlorophenoxy)-4-hydroxy-isoquinoline-3-carbonyl]-amino}-acetic acid” (FIBROGEN, INC., priority 2013, dated 2017):
Entries after “also recorded” stand apart in the source; their conditions may differ.

Legend:
[1] = tested on: Female Lewis rats challenged with peptidoglycan-polysaccharide polymers (PG-PS); assay: Anemia of chronic disease model (PG-PS challenge); format: in vivo
Method: Female Lewis rats were challenged with peptidoglycan-polysaccharide polymers (PG-PS) to induce arthritis and anemia. Arthritis and anemia were allowed to develop for 28 days prior to initiation of treatment with Compound A (oral gavage, 8 or 20 mg/kg) or vehicle (n=8/group). Treatments were administered 3 times per week (Monday, Wednesday, and Friday), for 2 weeks. Progression of the model was monitored by measurement of paw swelling and hematology parameters. Blood samples were analyzed for hematopoiesis and iron parameters. The study also included three non-challenged control groups (n=5/group) that were injected with saline rather than PG-PS and then treated with vehicle or Compound A (8 or 20 mg/kg) as described for the PG-PS animals. […] In addition to anemia, PG-PS-challenged rats developed systemic inflammation and arthritis, as indicated by elevated white blood cell counts and swelling of the extremities.

[2] = tested on: male Swiss Webster mice; assay: Hemoglobin and hematocrit levels in mice after 1 week of intermittent oral dosing; format: in vivo
Method: Compound A (2, 6, 20, 60, 100 or 200 mg/kg as an oral gavage) or vehicle control were administered orally 3 times in 1 week on Monday, Wednesday, and Friday (4-8 male Swiss Webster mice/group). Three days after the last dose, all animals were euthanized and blood and serum were collected for complete blood counts (CBC) and serum chemistry.

[3] = tested on: Female Wistar rats with subtotal nephrectomy; assay: Anemia induced by chronic kidney disease (5/6 nephrectomy, rat remnant kidney model); format: in vivo
Description: Female Wistar rats underwent subtotal nephrectomy (⅚) surgery to induce chronic kidney disease by ligating the left kidney to infarct ⅔ of the kidney while the right kidney underwent simultaneous total nephrectomy. As a control, additional animals underwent a sham surgery, without nephrectomy. Five weeks after surgery, anemia and chronic kidney disease in the nephrectomized animals were confirmed by clinical pathology and animals were then assigned to one of three treatment groups (n=8/group) and treated with 0 (vehicle), 8 or 20 mg/kg Compound A. The sham group (n=8) received 0 mg/kg (vehicle). Starting 6 weeks after surgery, all animals were dosed TIW (on Monday, Wednesday, and Friday) via oral gavage for 2 weeks. Whole blood samples were collected 5, 7, and 8 weeks after surgery.

[4] = tested on: healthy male volunteers; assay: Single oral dose in healthy male volunteers: erythropoietin, reticulocyte and hemoglobin levels; format: in vivo, human
Method: A single dose of Compound A (Form 2, capsules) was administered orally to healthy male volunteers. Compound A was provided in 1 mg and 5 mg capsules with the dose being rounded to the nearest whole capsule. In cohorts 1-4 the doses were 0.05 mg/kg, 0.15 mg/kg, 0.3 mg/kg and 0.4 mg/kg respectively. The time points for blood collection were: predose, 8, 12, 16, 20, 24, 30, 48, 72, 96 and 120 hours, days 8, 10, 12, and 15 post dose.

[5] = Relative stability of Form 1 and Form 2 (summary of Example 3); format: physicochemical
Description: The relative stability of Form 1 and Form 2 have been studied under different conditions (see Example 3).

[6] = Maturation of Form 1 in water with or without seeds of Form 2, XRPD; format: physicochemical; conditions: 50° C./room temperature (4 h-cycles), 75% RH
Method: A suspension of a solid mixture of Form 1 and Form 2 (1:1) in water was incubated at 50° C./room temperature (4 h-cycles), and at 75% RH for four days. After this time, the solid was analysed by XRPD. The crystalline pattern matched Form 2, and no traces of Form 1 were detected in this analysis.
Form 1 was suspended in water and incubated at 50° C./room temperature (4 h-cycles), and at 75% RH. In this case, the transformation of Form 1 into Form 2 was slower.

[7] = Reflux of Form 1 in water, monitored by XRPD; format: physicochemical
Description: Form 1 was refluxed in water and the crystallinity of the solid was monitored by XRPD.

[8] = Stability of Form 1 in water at 25° C., XRPD; format: physicochemical; conditions: six days
Method: Form 1 was suspended in water at 25° C., and the crystallinity of the solid was analysed by XRPD over a period of time.

[9] = Stability of solid forms in humidity chamber at 40° C. and 75% RH, re-analysed by XRPD; format: physicochemical; conditions: one week
Method: The solids were then stored in the humidity chamber at 40° C. and 75% RH for a week to assess their stability under these conditions, and re-analysed by XRPD.

[10] = 8 or 20 mg/kg oral 3 times per week for 2 weeks, statistically significant at 20 mg/kg
[11] = all dose groups 2-200 mg/kg, oral gavage 3 times in 1 week, three days after last dose
[12] = 8 and 20 mg/kg oral TIW, after 2 weeks of treatment
[13] = cohort 2, 0.15 mg/kg single oral dose
[14] = cohort 3, 0.3 mg/kg single oral dose

With `N#Cc1nc(C(=O)NCC(=O)O)c(O)c2c(Oc3ccc(Cl)cc3)cccc12` [Compound A, {[1-cyano-5-(4-chlorophenoxy)-4-hydroxy-isoquinoline-3-carbonyl]-amino}-acetic acid] the “HCT decrease induced by PG-PS challenge” value [1, 10] was “corrected”, the “Hb decrease induced by PG-PS challenge” value [1, 10] was “corrected” and the “MCH decrease induced by PG-PS challenge” value [1, 10] was “corrected”. For the same compound, the “RBC decrease induced by PG-PS challenge” value [1, 10] was “corrected”, the “TIBC increase induced by PG-PS challenge” value [1, 10] was “corrected” and the “anemia associated with anemia of chronic disease” value ([1]; intermittent treatment) was “significantly alleviated”. The “Mean hematocrit (HCT) compared to vehicle control” value [2, 11] was “significantly higher”, the “Mean hemoglobin (Hb) compared to vehicle control” value [2, 11] was “significantly higher” and the “Mean red blood counts (RBC) compared to vehicle control” value [2, 11] was “significantly higher”. The Hb levels increase ([2]; lowest dose tested, 2 mg/kg, 1-week study) was “more than 1 g/dL”, the “Hb, HCT and RBC (all three parameters) relative to non-anemic sham control group” value ([3]; 20 mg/kg oral TIW, 2 weeks) was “normalized” and the “MCV in nephrectomized animals” value ([3]; 20 mg/kg, after 2 weeks of treatment) was “significantly higher”. For the same compound, the “HCT compared to vehicle controls” value [3, 12] was “significantly elevated”, the “Hb compared to vehicle controls” value [3, 12] was “significantly elevated” and the “RBC compared to vehicle controls” value [3, 12] was “significantly elevated”. The “MCH values in nephrectomized animals” value ([3]; 8 and 20 mg/kg, not significant) was “higher”, the “anemia associated with 5/6 nephrectomy” value ([3]; intermittent treatment for 2 weeks) was “corrected” and the “change in mean hemoglobin levels” value ([4]; Cohort 1, 0.05 mg/kg, Day 0 to Day 8) was “did not change”. For the same compound, the “Reticulocyte values (% baseline ± SD)” value ([4]; Cohort 1, 0.05 mg/kg, Day 3) was 104 ± 8 % baseline, the “Reticulocyte values (% baseline ± SD)” value ([4]; Cohort 1, 0.05 mg/kg, Day 5) was 111 ± 10 % baseline and the “Reticulocyte values (% baseline ± SD)” value ([4]; Cohort 1, 0.05 mg/kg, Day 8) was 120 ± 20 % baseline. For the same compound, the “Reticulocyte values (% baseline ± SD)” value ([4]; Cohort 2, 0.15 mg/kg, Day 3) was 111 ± 19 % baseline, the “Reticulocyte values (% baseline ± SD)” value ([4]; Cohort 2, 0.15 mg/kg, Day 5) was 121 ± 22 % baseline and the “Reticulocyte values (% baseline ± SD)” value ([4]; Cohort 3, 0.3 mg/kg, Day 3) was 127 ± 3 % baseline. The “Reticulocyte values (% baseline ± SD)” value ([4]; Cohort 3, 0.3 mg/kg, Day 5) was 141 ± 22 % baseline, the “Reticulocyte values (% baseline ± SD)” value ([4]; Cohort 4, 0.4 mg/kg, Day 3) was 163 ± 21 % baseline and the “Reticulocyte values (% baseline ± SD)” value ([4]; Cohort 4, 0.4 mg/kg, Day 5) was 134 ± 22 % baseline. For the same compound, the “time of peak erythropoietin levels” value ([4]; cohort 1, 0.05 mg/kg single oral dose) was “approximately 16.8 hours”, the “mean maximum plasma erythropoietin concentration” value ([4]; cohort 1, 0.05 mg/kg single oral dose, baseline mean 11.4 mIU/mL) was 27.2 mIU/mL and the “median maximum erythropoietin concentration” value [4, 13] was 81.7 mIU/ml. The “time of peak erythropoietin levels (mean)” value [4, 13] was 14 h, the “time until mean erythropoietin levels trended back to baseline” value [4, 13] was “approximately 5 days” and the “Reticulocyte values (% baseline ± SD)” value ([4]; cohort 2, 0.15 mg/kg, Day 8) was 180 ± 53 % baseline. For the same compound, the mean hemoglobin increase ([4]; cohort 2, 0.15 mg/kg, Day 8) was 0.3 g/dL, the “average maximum erythropoietin concentration” value [4, 14] was “approximately 620 mIU/mL” and the “time of peak erythropoietin levels (mean)” value [4, 14] was 23 h. The “Reticulocyte values (% baseline ± SD)” value ([4]; cohort 3, 0.3 mg/kg, Day 8) was 231 ± 40 % baseline, the mean hemoglobin increase ([4]; cohort 3, 0.3 mg/kg, Day 8) was 0.8 g/dL and the “median time to maximum EPO concentration” value ([4]; cohort 4, 0.4 mg/kg single oral dose) was 20 h. For the same compound, the “mean maximum plasma erythropoietin concentration” value ([4]; cohort 4, 0.4 mg/kg single oral dose, pending re-analysis of one sample above upper limit of quantitation) was 2,900 mIU/mL, the “Reticulocyte values (% baseline ± SD)” value ([4]; cohort 4, 0.4 mg/kg, Day 8) was 376 ± 60 % baseline and the mean hemoglobin increase ([4]; cohort 4, 0.4 mg/kg, Day 8) was 0.7 g/dL. The mean hemoglobin increase ([4]; cohort 4, 0.4 mg/kg, Day 15) was 1.1 g/dL.

With `N#Cc1nc(C(=O)NCC(=O)O)c(O)c2c(Oc3ccc(Cl)cc3)cccc12` [Form 1, {[1-cyano-5-(4-chlorophenoxy)-4-hydroxy-isoquinoline-3-carbonyl]-amino}-acetic acid] the hygroscopicity [5] was “low hygroscopicity”, the stability to humidity [5] was “stable” and the “conversion of form on maturation in isopropyl acetate (IPAc)” value ([5]; 5° C., 25° C. and 50° C.) was “converts to Form 2”. For the same compound, the “conversion of form on heating” value ([5]; heating above 200° C.) was “converts to Form 2”, the “transformation on maturation in water without seeds of Form 2” value ([6]; after 4 days) was “clear indication of Form 2 forming” and the “transformation on maturation in water without seeds of Form 2” value ([6]; after 15 days) was “completely turned to Form 2”. The “crystallinity by XRPD on reflux in water” value ([7]; after 2.5 h) was “several new diffraction peaks corresponding to Form 2”, the “crystallinity by XRPD on reflux in water” value ([7]; after 10 h at reflux) was “transformation of Form 1 into Form 2 was complete” and the “changes in crystalline pattern in aqueous suspension” value [8] was “remains unchanged; also recorded: No changes”.

For `N#Cc1nc(C(=O)NCC(=O)O)c(O)c2c(Oc3ccc(Cl)cc3)cccc12` [Form 2, {[1-cyano-5-(4-chlorophenoxy)-4-hydroxy-isoquinoline-3-carbonyl]-amino}-acetic acid], the hygroscopicity [5] was “low hygroscopicity”, the stability to humidity [5] was “stable” and the relative thermodynamic stability ([5]; conditions investigated) was “thermodynamically more stable than Form 1”. The “transformation of Form 2 into Form 1” value ([5]; conditions investigated) was “has not been observed” and the “Stability at 40° C./75% RH (form found by XRPD)” value [9] was “remained unchanged; also recorded: Form 2”.

In the case of `N#Cc1nc(C(=O)NCC(=O)O)c(O)c2c(Oc3ccc(Cl)cc3)cccc12` [XRPD 7], the “Stability at 40° C./75% RH (form found by XRPD)” value [9] is reported as “changed into Form 2”.
